{"source": "paper PMC6394990", "about": "“Detailed characterization of the solution kinetics and thermodynamics of biotin, biocytin and HABA binding to avidin and streptavidin” (PLoS ONE, 2019)", "key": {"avidin (AV) [1]": {"biological_target": "T1, avidin (AV) (Gallus gallus, UniProt P02701)", "T1 construct": "purchased Calbiochem (La Jolla, CA)", "T1 sequence (P02701 25-152)": "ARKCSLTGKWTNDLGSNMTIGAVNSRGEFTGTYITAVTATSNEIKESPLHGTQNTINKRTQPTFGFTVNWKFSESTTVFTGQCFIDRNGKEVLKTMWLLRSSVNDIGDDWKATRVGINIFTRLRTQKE", "conditions": "AV-B7, cited from earlier work"}, "streptavidin (SAV) [2]": {"biological_target": "T2, streptavidin (SAV) (Streptomyces avidinii, UniProt P22629)", "T2 construct": "purchased Sigma Aldrich (St. Louis, MO)", "T2 sequence (P22629 25-183)": "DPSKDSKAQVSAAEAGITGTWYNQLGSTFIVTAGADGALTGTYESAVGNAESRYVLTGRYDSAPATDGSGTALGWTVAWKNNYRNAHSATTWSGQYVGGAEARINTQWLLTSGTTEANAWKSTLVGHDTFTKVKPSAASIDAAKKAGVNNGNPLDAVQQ", "conditions": "SAV-B7, cited from earlier work"}, "avidin (AV) [3]": {"biological_target": "T1, avidin (AV)", "assay": "Literature calorimetry reaction thermodynamics", "assay_type": "binding", "conditions": "AV-B7, average of the reported values"}, "avidin (AV) [4]": {"biological_target": "T1, avidin (AV)", "conditions": "cited from earlier work; for ΔG° ^ǂ, Backward / ΔS° ^ǂ, Backward: calculated from the plotted data; for Ea^Backward: ref 18"}, "streptavidin (SAV) [5]": {"biological_target": "T2, streptavidin (SAV)", "assay": "Literature calorimetry reaction thermodynamics", "assay_type": "binding", "conditions": "SAV-B7, average of the reported values"}, "streptavidin (SAV) [6]": {"biological_target": "T2, streptavidin (SAV)", "conditions": "cited from earlier work"}}, "note": "“And” between values parts separate entries of the source, which are not always exact repeats. Equal values may be shown once. Read-outs that look alike come from different tables or passages of the source. Marks after values point to notes of the source that are not given here."}
{"smiles": "O=C(O)CCCC[C@@H]1SC[C@@H]2NC(=O)N[C@@H]21", "note": "[B7, d-biotin]", "values": [{"measurement": "ΔH°rxn", "setting": "avidin (AV) [1]; ref 39", "result": "-26.7 kcal/mol and -26.7 36 kcal/mol"}, {"measurement": "ΔH°rxn", "setting": "avidin (AV) [1]; ref 39, listed as B", "result": "-26.7 20 kcal/mol"}, {"measurement": "ΔG°rxn", "setting": "avidin (AV) [1]; ref 76", "result": "-20.5 kcal/mol and -20.5 77 kcal/mol"}, {"measurement": "ΔH°rxn", "setting": "avidin (AV) [1]; ref 76", "result": "-20.3 ± 0.3 kcal/mol and -20.3 ± 0.377 kcal/mol"}, {"measurement": "ΔG°rxn", "setting": "avidin (AV) [1]; ref 76, listed as B", "result": "-20.5 50 kcal/mol"}, {"measurement": "ΔH°rxn", "setting": "avidin (AV) [1]; ref 76, listed as B", "result": "-20.3 ± 0.3 50 kcal/mol"}, {"measurement": "ΔH°rxn", "setting": "avidin (AV) [1]; ref 77", "result": "-22.5 ± 0.1 kcal/mol and -22.5 ± 0.1 78 kcal/mol"}, {"measurement": "ΔH°rxn", "setting": "avidin (AV) [1]; ref 77, listed as B", "result": "-22.5 ± 0.1 52 kcal/mol"}, {"measurement": "ΔG°rxn", "setting": "avidin (AV) [1]; ref 78", "result": "-20.8 kcal/mol and -20.8 79 kcal/mol"}, {"measurement": "ΔH°rxn", "setting": "avidin (AV) [1]; ref 78", "result": "-23.4 ± 0.3 kcal/mol and -23.4 ± 0.3 79 kcal/mol"}, {"measurement": "ΔS°rxn", "setting": "avidin (AV) [1]; ref 78", "result": "-8.9 [78] cal/mol°K and -8.9 79 cal/mol°K"}, {"measurement": "ΔG°rxn", "setting": "avidin (AV) [1]; ref 78, listed as B", "result": "-20.8 51 kcal/mol"}, {"measurement": "ΔH°rxn", "setting": "avidin (AV) [1]; ref 78, listed as B", "result": "-23.4 ± 0.3 51 kcal/mol"}, {"measurement": "ΔS°rxn", "setting": "avidin (AV) [1]; ref 78, listed as B", "result": "-8.9 51 cal/mol°K"}, {"measurement": "ΔH°rxn", "setting": "streptavidin (SAV) [2]; ref 19", "result": "-26.7 19 kcal/mol"}, {"measurement": "ΔH°rxn", "setting": "streptavidin (SAV) [2]; ref 19, listed as B", "result": "-26.7 6 kcal/mol"}, {"measurement": "ΔG°rxn", "setting": "streptavidin (SAV) [2]; ref 39", "result": "-18.1 kcal/mol and -18.1 36 kcal/mol"}, {"measurement": "ΔH°rxn", "setting": "streptavidin (SAV) [2]; ref 39", "result": "-24.5 kcal/mol and -24.5 36 kcal/mol"}, {"measurement": "ΔS°rxn", "setting": "streptavidin (SAV) [2]; ref 39", "result": "-21.0 [39] cal/mol°K and -21.0 36 cal/mol°K"}, {"measurement": "ΔG°rxn", "setting": "streptavidin (SAV) [2]; ref 39, listed as B", "result": "-18.1 20 kcal/mol"}, {"measurement": "ΔH°rxn", "setting": "streptavidin (SAV) [2]; ref 39, listed as B", "result": "-24.5 20 kcal/mol"}, {"measurement": "ΔS°rxn", "setting": "streptavidin (SAV) [2]; ref 39, listed as B", "result": "-21.0 20 cal/mol°K"}, {"measurement": "ΔH°rxn", "setting": "streptavidin (SAV) [2]; ref 79", "result": "-23.0 kcal/mol and -23.0 72 kcal/mol"}, {"measurement": "ΔH°rxn", "setting": "streptavidin (SAV) [2]; ref 79, listed as B", "result": "-23.0 50 kcal/mol"}, {"measurement": "ΔH°rxn", "setting": "streptavidin (SAV) [2]; ref 80", "result": "-24.9 ± 0.4 kcal/mol and -24.9 ± 0.4 80 kcal/mol"}, {"measurement": "ΔH°rxn", "setting": "streptavidin (SAV) [2]; ref 80, listed as B", "result": "-24.9 ± 0.4 53 kcal/mol"}, {"measurement": "ΔG°rxn", "setting": "streptavidin (SAV) [2]; ref 83, 84", "result": "-18.3 kcal/mol and -18.3 83,84 kcal/mol"}, {"measurement": "ΔG°rxn", "setting": "streptavidin (SAV) [2]; ref 83, 84, listed as B", "result": "-18.3 54, 57 kcal/mol"}, {"measurement": "ΔG°rxn, averaged value", "setting": "avidin (AV) [3]", "result": "-20.7 ± 0.3", "unit": "kcal/mol"}, {"measurement": "ΔH°rxn, averaged value", "setting": "avidin (AV) [3]", "result": "-23.2 ± 1.7^d kcal/mol and -23.2 ± 1.7 d kcal/mol"}, {"measurement": "ΔG°rxn, averaged value", "setting": "avidin (AV) [3]; listed as B", "result": "-20.7 ± 1.0", "unit": "kcal/mol"}, {"measurement": "ΔH°rxn, averaged value", "setting": "avidin (AV) [3]; listed as B", "result": "-23.2 ± 1.0", "unit": "kcal/mol"}, {"measurement": "ΔG° ^ǂ, Backward", "setting": "avidin (AV) [4]; AV-B7", "result": "24.7 ± 2.0 [18]^e kcal/mol and 24.7 kcal/mol"}, {"measurement": "ΔS° ^ǂ, Backward", "setting": "avidin (AV) [4]; AV-B7", "result": "43.0 ± 2.0 [18]^e cal/mol°K and 43 cal/mol°K"}, {"measurement": "ΔG° ^ǂ, Backward", "setting": "avidin (AV) [4]; AV-B7, listed as B", "result": "24.7 ± 1.0 6,a kcal/mol"}, {"measurement": "ΔS° ^ǂ, Backward", "setting": "avidin (AV) [4]; AV-B7, listed as B", "result": "43.0 ± 2.0 6,a cal/mol°K"}, {"measurement": "Ea^Backward", "setting": "avidin (AV) [4]; AV-B7", "result": "37.6 ± 2.0 [18] kcal/mol and 37.6 kcal/mol"}, {"measurement": "Ea^Backward", "setting": "avidin (AV) [4]; AV-B7, listed as B", "result": "37.6 ± 1.0 6,a kcal/mol"}, {"measurement": "koff replacement", "setting": "avidin (AV) [4]; AV-B7, ref 35", "result": "9e-08", "unit": "s⁻¹"}, {"measurement": "kon", "setting": "avidin (AV) [4]; Surface Plasmon Resonance, 20°C, pH 7.4 in HEPES buffer", "result": "2.0 ± 0.3 × 10^6 M^-1s^-1"}, {"measurement": "half-life of the AV-B7 complex", "setting": "avidin (AV) [4]", "result": 90, "unit": "days"}, {"measurement": "kon", "setting": "avidin (AV) [4]; pH 5 and 25°C, 14C-biotin quenching experiment", "result": "7e+07", "unit": "M⁻¹ s⁻¹"}, {"measurement": "ΔG°rxn, averaged value", "setting": "streptavidin (SAV) [5]", "result": "-18.2 ± 0.2", "unit": "kcal/mol"}, {"measurement": "ΔH°rxn, averaged value", "setting": "streptavidin (SAV) [5]", "result": "-24.8 ± 2.0", "unit": "kcal/mol"}, {"measurement": "ΔG°rxn, averaged value", "setting": "streptavidin (SAV) [5]; listed as B", "result": "-18.2 ± 0.1", "unit": "kcal/mol"}, {"measurement": "ΔG° ^ǂ, Backward", "setting": "streptavidin (SAV) [6]; SAV-B7, calculated at 25°C", "result": "24.8 ± 0.3 kcal/mol and 24.8 ± 0.3 80,f kcal/mol"}, {"measurement": "ΔG° ^ǂ, Backward", "setting": "streptavidin (SAV) [6]; SAV-B7, calculated at 25°C, listed as B", "result": "24.8 ± 0.3 53,b kcal/mol"}, {"measurement": "ΔS° ^ǂ, Backward", "setting": "streptavidin (SAV) [6]; SAV-B7, calculated from the plotted data", "result": "29.9 ± 2.0 cal/mol°K and 29.9 ± 2.0 18 e cal/mol°K"}, {"measurement": "ΔS° ^ǂ, Backward", "setting": "streptavidin (SAV) [6]; SAV-B7, calculated from the plotted data, listed as B", "result": "29.9 ± 2.0 6,a cal/mol°K"}, {"measurement": "ΔS° ^ǂ, Backward", "setting": "streptavidin (SAV) [6]; SAV-B7, ref 39, 80, 82", "result": "18.8 ± 0.3 cal/mol°K and 18.8 ± 0.3 36,80,81 cal/mol°K"}, {"measurement": "ΔS° ^ǂ, Backward", "setting": "streptavidin (SAV) [6]; SAV-B7, ref 39, 80, 82, listed as B", "result": "18.8 ± 0.3 20, 53, 55 cal/mol°K"}, {"measurement": "Ea^Backward", "setting": "streptavidin (SAV) [6]; SAV-B7, ref 39, 80", "result": "30.4 ± 0.2 kcal/mol and 30.4 ± 0.2 36,80 kcal/mol"}, {"measurement": "Ea^Backward", "setting": "streptavidin (SAV) [6]; SAV-B7, ref 39, 80, listed as B", "result": "30.4 ± 0.2 20, 53 kcal/mol"}, {"measurement": "ΔG° ^ǂ, Backward", "setting": "streptavidin (SAV) [6]; SAV-B7, ref 39, 82", "result": "24.6 ± 0.3 kcal/mol and 24.6 ± 0.3 36,81 kcal/mol"}, {"measurement": "ΔG° ^ǂ, Backward", "setting": "streptavidin (SAV) [6]; SAV-B7, ref 39, 82, listed as B", "result": "24.6 ± 0.3 20, 55 kcal/mol"}, {"measurement": "ΔG° ^ǂ, Backward", "setting": "streptavidin (SAV) [6]; SAV-B7, ref 47", "result": "21.4 ± 2.0 kcal/mol and 21.4 ± 2.0 44 kcal/mol"}, {"measurement": "ΔG° ^ǂ, Backward", "setting": "streptavidin (SAV) [6]; SAV-B7, ref 47, listed as B", "result": "21.4 ± 1.0 6 kcal/mol"}, {"measurement": "koff replacement", "setting": "streptavidin (SAV) [6]; SAV-B7, ref 68", "result": "2.4e-06", "unit": "s⁻¹"}, {"measurement": "Ea^Backward", "setting": "streptavidin (SAV) [6]; SAV-B7, ref 81", "result": "32.0 kcal/mol and 32 kcal/mol"}, {"measurement": "ΔS° ^ǂ, Backward", "setting": "streptavidin (SAV) [6]; SAV-B7, ref 81", "result": "25.8 cal/mol°K and 25.8 82 cal/mol°K"}, {"measurement": "Ea^Backward", "setting": "streptavidin (SAV) [6]; SAV-B7, ref 81, listed as B", "result": "32.0 56 kcal/mol"}, {"measurement": "ΔS° ^ǂ, Backward", "setting": "streptavidin (SAV) [6]; SAV-B7, ref 81, listed as B", "result": "25.8 56 cal/mol°K"}, {"measurement": "Ea^Backward", "setting": "streptavidin (SAV) [6]; SAV-B7, ref 82", "result": "25.8 ± 1.2 kcal/mol and 25.8 ± 1.2 81 kcal/mol"}, {"measurement": "Ea^Backward", "setting": "streptavidin (SAV) [6]; SAV-B7, ref 82, listed as B", "result": "25.8 ± 1.2 55 kcal/mol"}, {"measurement": "kon", "setting": "streptavidin (SAV) [6]; SPR, immobilized B7, 4°C", "result": "5.1e+06", "unit": "M⁻¹ s⁻¹"}, {"measurement": "kon", "setting": "streptavidin (SAV) [6]; stopped-flow, tryptophan fluorescence quenching, 25°C and pH 7", "result": "7.5 ± 0.6 × 10^7 M^-1s^-1"}]}
